Laboratory results published in ChEMBL document CHEMBL3244391, “Antiviral activity of aliphatic nucleoside analogues: structure-function relationship” (1979).

What follows are compounds tested on Vaccinia virus (assay: Antiviral activity against Vaccinia virus infected in rabbit primary kidney cells assessed as inhibition of viral cytopathogenicity after 3 days).
Type: functional, Orthopoxvirus vaccinia

Structure (SMILES)	MID
Nc1ncnc2c1ncn2C[C@H](O)[C@H](O)CO	200 µg/mL
O=c1ccn(CC[C@H](O)CO)c(=O)[nH]1	>400 µg/mL
COC(CO)Cn1cnc2c(N)ncnc21 (racemic)	>400 µg/mL
C[C@@H](O)[C@@H](O)Cn1cnc2c(N)ncnc21 (racemic)	150 µg/mL
O=c1ccn(C[C@H](O)[C@H](O)CO)c(=O)[nH]1 (racemic)	>400 µg/mL
Nc1ncnc2c1nc(Br)n2CC(O)CO (racemic)	>200 µg/mL
Nc1c2ncn(CC(O)CO)c2nc[n+]1[O-] (racemic)	>400 µg/mL
CNc1ncnc2c1ncn2CC(O)CO (racemic)	>400 µg/mL
Cc1c[nH]c(=O)n(C[C@H](O)CO)c1=O	>400 µg/mL
NCCn1cnc2c(N)ncnc21	>400 µg/mL
CC(C)(C)C(=O)OCC(Cn1cnc2c(N)ncnc21)OC(=O)C(C)(C)C (racemic)	300 µg/mL
Nc1ncnc2c1ncn2C[C@H](O)[C@@H](O)CO	>400 µg/mL
Nc1ncnc2c1ncn2CCC(O)CCO (racemic)	>400 µg/mL
CSc1nc(N)c2ncn(CC(O)CO)c2n1 (racemic)	400 µg/mL
Nc1ncnc2c1ncn2CCC(O)CO (racemic)	100 µg/mL
CCCCCCCCCCCCCCCC(=O)OCC(O)Cn1cnc2c(N)ncnc21 (racemic)	100 µg/mL
Nc1ncnc2c1ncn2C[C@@H](O)CO	>400 µg/mL
Cc1cn(C[C@H](O)CO)c(=O)[nH]c1=O	>400 µg/mL
OC[C@@H](O)Cn1cnc2c(O)ncnc21	>400 µg/mL

Structure (SMILES)	MID
O=c1ccn(CC(O)C(O)CO)c(=O)[nH]1 (racemic)	>400 µg/mL
Nc1ncnc2c1ncn2C[C@H](O)CO [(S)-DHPA]	10 µg/mL
COCC(Cn1cnc2c(N)ncnc21)OC (racemic)	>400 µg/mL
Nc1ccn([C@@H]2O[C@H](CO)[C@@H](O)[C@@H]2O)c(=O)n1 [CYTARABINE]	0.02 µg/mL
O=c1ccn(C[C@@H](O)[C@H](O)CO)c(=O)[nH]1	>400 µg/mL
Nc1nc(O)c2c(ncn2CC(O)CO)n1 (racemic)	>400 µg/mL
OCC(O)Cn1cnc2c(S)ncnc21 (racemic)	>400 µg/mL
CN(C)c1ncnc2c1ncn2CC(O)CO (racemic)	>400 µg/mL
Nc1ncnc2c1ncn2CC(O)C(O)CO (racemic)	400 µg/mL
[N-]=[N+]=NCC(O)Cn1cnc2c(N)ncnc21 (racemic)	>400 µg/mL
Nc1ncnc2c1ncn2C[C@@H](O)[C@H](O)CO	>400 µg/mL
Nc1ncnc2c1ncn2CC[C@H](O)CO	200 µg/mL
Nc1ncnc2c1nc(S)n2CC(O)CO (racemic)	>400 µg/mL
O=c1[nH]c(=O)n([C@H]2C[C@H](O)[C@@H](CO)O2)cc1I [IDOXURIDINE]	0.1 µg/mL
CC(C)(C)C(=O)OCC(O)Cn1cnc2c(N)ncnc21 (racemic)	300 µg/mL
Nc1ncnc2c1nc(O)n2CC(O)CO (racemic)	>400 µg/mL
Nc1ccn(CC(O)CO)c(=O)n1 (racemic)	>400 µg/mL
O=c1ccn(C[C@H](O)CO)c(=O)[nH]1	>400 µg/mL
COCC(O)Cn1cnc2c(N)ncnc21 (racemic)	>400 µg/mL

Structure (SMILES)	MID
[N-]=[N+]=NCC(Cn1cnc2c(N)ncnc21)N=[N+]=[N-] (racemic)	150 µg/mL
Nc1nc2c(ncn2CC(O)CO)c(=O)[nH]1 (racemic)	>400 µg/mL
Nc1ncnc2c1ncn2[C@@H]1O[C@H](CO)[C@@H](O)[C@@H]1O [VIDARABINE]	0.3 µg/mL
O=c1ccn(CCC(O)CCO)c(=O)[nH]1 (racemic)	>400 µg/mL
Cc1cn(C[C@@H](O)CO)c(=O)[nH]c1=O	>400 µg/mL
Nc1ncnc2c1ncn2CCO	>400 µg/mL
CC(=O)OC[C@H](Cn1cnc2c(N)ncnc21)OC(C)=O	>400 µg/mL
Nc1ncnc2c1ncn2C(CO)CO	>400 µg/mL
Nc1ncnc2c1ncn2C[C@@H](O)[C@@H](O)CO	>400 µg/mL
CC(O)Cn1cnc2c(N)ncnc21 (racemic)	>400 µg/mL
O=c1cnn(CC(O)CO)c(=O)[nH]1 (racemic)	>400 µg/mL
Nc1ncnc2c1ncn2CCCO	300 µg/mL
Nc1ncnc2c1ncn2CC(O)CO (racemic)	40 µg/mL
Nc1nc(N)c2ncn(CC(O)CO)c2n1 (racemic)	>400 µg/mL
Nc1ncnc2c1ncn2CC(N)CO (racemic)	>400 µg/mL
NCC(O)Cn1cnc2c(N)ncnc21 (racemic)	400 µg/mL
CCC(=O)OCC(Cn1cnc2c(N)ncnc21)OC(=O)CC (racemic)	>400 µg/mL
NCC(N)Cn1cnc2c(N)ncnc21 (racemic)	>400 µg/mL
